Measurements reported in paper PMC5218480 (PLoS ONE, 2017).

Tested on: MV-4-11 cells
Test: Gene expression microarray analysis (Affymetrix PrimeView) and GSEA
Assay type: cell-based, human
Parameters: RFU PODN (11730768_x_at) / Fold change /veh PODN (11730768_x_at) / RFU LINC00158 (11744669_a_at) / Fold change /veh LINC00158 (11744669_a_at) / RFU DUSP10 (11751237_a_at) / Fold change /veh DUSP10 (11751237_a_at) / RFU ID3 (11757404_x_at) / Fold change /veh ID3 (11757404_x_at) / RFU PLEKHG5 (11737974_s_at) / Fold change /veh PLEKHG5 (11737974_s_at) / RFU LRRC4B (11730491_at) / Fold change /veh LRRC4B (11730491_at) / RFU GIMAP4 (11747438_a_at) / Fold change /veh GIMAP4 (11747438_a_at) / RFU KRT8 (11758183_x_at) / Fold change /veh KRT8 (11758183_x_at) / RFU CNN1 (11734310_a_at) / Fold change /veh CNN1 (11734310_a_at) / RFU VPS37D (11726825_at) / Fold change /veh VPS37D (11726825_at) / RFU C10orf10 (11716522_x_at) / Fold change /veh C10orf10 (11716522_x_at) / RFU KIR2DL2 /// KIR2DL4 /// KIR2DL5A /// KIR2DL5B /// KIR2DS1 /// KIR2DS2 /// KIR2DS3 /// KIR2DS4 /// KIR3DL3 /// KIR3DL3 /// KIR3DS1 (11738374_at) / Fold change /veh KIR2DL2 /// KIR2DL4 /// KIR2DL5A /// KIR2DL5B /// KIR2DS1 /// KIR2DS2 /// KIR2DS3 /// KIR2DS4 /// KIR3DL3 /// KIR3DL3 /// KIR3DS1 (11738374_at) / RFU C1QL1 (11718748_at) / Fold change /veh C1QL1 (11718748_at) / RFU TMPRSS4 (11747572_a_at) / Fold change /veh TMPRSS4 (11747572_a_at) / RFU HAMP (11756126_x_at) / Fold change /veh HAMP (11756126_x_at) / RFU RNFT2 (11725882_a_at) / Fold change /veh RNFT2 (11725882_a_at) / RFU NR4A2 (11747474_a_at) / Fold change /veh NR4A2 (11747474_a_at) / RFU ABCC12 (11746883_a_at) / Fold change /veh ABCC12 (11746883_a_at) / RFU TMEM136 (11760407_x_at) / Fold change /veh TMEM136 (11760407_x_at) / RFU CLDN22 /// WWC2 (11732394_at) / Fold change /veh CLDN22 /// WWC2 (11732394_at) / RFU HLA-DPB1 (11760878_x_at) / Fold change /veh HLA-DPB1 (11760878_x_at) / RFU SPINT1 (11716480_a_at) / Fold change /veh SPINT1 (11716480_a_at) / RFU GAP43 (11754022_s_at) / Fold change /veh GAP43 (11754022_s_at) / RFU A4GNT (11735810_at) / Fold change /veh A4GNT (11735810_at) / RFU PRB3 (11715151_x_at) / Fold change /veh PRB3 (11715151_x_at) / RFU TUBB4B (11761932_at) / Fold change /veh TUBB4B (11761932_at) / RFU CAPN14 (11732068_a_at) / Fold change /veh CAPN14 (11732068_a_at) / RFU TMCC2 (11721928_a_at) / Fold change /veh TMCC2 (11721928_a_at) / RFU IRGQ (11745062_a_at) / Fold change /veh IRGQ (11745062_a_at) / RFU FAM174B (11720279_a_at) / Fold change /veh FAM174B (11720279_a_at) / RFU TMPRSS4 (11748680_a_at) / Fold change /veh TMPRSS4 (11748680_a_at) / RFU FAM212B (11763350_a_at) / Fold change /veh FAM212B (11763350_a_at) / RFU PLEKHG5 (11743358_a_at) / Fold change /veh PLEKHG5 (11743358_a_at) / RFU ZSCAN30 (11745921_a_at) / Fold change /veh ZSCAN30 (11745921_a_at) / RFU CMKLR1 (11741424_a_at) / Fold change /veh CMKLR1 (11741424_a_at) / RFU LOC101060620 /// MAPK8IP1 (11723275_at) / Fold change /veh LOC101060620 /// MAPK8IP1 (11723275_at) / RFU SPTSSB (11747773_x_at) / Fold change /veh SPTSSB (11747773_x_at) / RFU PRSS12 (11739890_at) / Fold change /veh PRSS12 (11739890_at) / RFU BIN1 (11741810_x_at) / Fold change /veh BIN1 (11741810_x_at) / RFU WNT11 (11732464_a_at) / Fold change /veh WNT11 (11732464_a_at) / RFU C10orf10 (11716521_a_at) / Fold change /veh C10orf10 (11716521_a_at) / RFU C5orf56 (11738089_at) / Fold change /veh C5orf56 (11738089_at) / RFU CYB561 (11721691_x_at) / Fold change /veh CYB561 (11721691_x_at) / RFU ANKRD19P (11752326_a_at) / Fold change /veh ANKRD19P (11752326_a_at) / RFU OR2T12 /// OR2T33 /// OR2T8 (11738714_s_at) / Fold change /veh OR2T12 /// OR2T33 /// OR2T8 (11738714_s_at) / RFU VCAN (11748164_a_at) / Fold change /veh VCAN (11748164_a_at) / RFU JSRP1 (11732532_at) / Fold change /veh JSRP1 (11732532_at) / RFU KRTAP10-11 (11738290_x_at) / Fold change /veh KRTAP10-11 (11738290_x_at) / RFU MYO3A (11730013_a_at) / Fold change /veh MYO3A (11730013_a_at) / RFU EBF3 (11725865_a_at) / Fold change /veh EBF3 (11725865_a_at) / RFU CAMK2N1 (11719241_x_at) / Fold change /veh CAMK2N1 (11719241_x_at) / RFU C5orf56 (11738088_a_at) / Fold change /veh C5orf56 (11738088_a_at) / RFU OLFML3 (11715873_a_at) / Fold change /veh OLFML3 (11715873_a_at) / RFU LOC100653217 /// NTM (11731650_a_at) / Fold change /veh LOC100653217 /// NTM (11731650_a_at) / RFU MAPK11 (11762145_a_at) / Fold change /veh MAPK11 (11762145_a_at) / RFU FIZ1 (11724087_x_at) / Fold change /veh FIZ1 (11724087_x_at) / RFU OASL (11726364_x_at) / Fold change /veh OASL (11726364_x_at) / RFU SOX15 (11748057_x_at) / Fold change /veh SOX15 (11748057_x_at) / RFU CD79A (11719716_a_at) / Fold change /veh CD79A (11719716_a_at) / RFU HIST1H1D (11736915_at) / Fold change /veh HIST1H1D (11736915_at) / RFU CASKIN2 (11723855_a_at) / Fold change /veh CASKIN2 (11723855_a_at) / RFU LOC730098 (11760151_x_at) / Fold change /veh LOC730098 (11760151_x_at) / RFU OR4N2 (11742367_at) / Fold change /veh OR4N2 (11742367_at) / RFU PRRT2 (11749266_a_at) / Fold change /veh PRRT2 (11749266_a_at) / RFU SNX32 (11753110_a_at) / Fold change /veh SNX32 (11753110_a_at) / RFU CDHR5 (11726645_a_at) / Fold change /veh CDHR5 (11726645_a_at) / RFU RCAN1 (11760418_a_at) / Fold change /veh RCAN1 (11760418_a_at) / RFU FAM167A (11723789_a_at) / Fold change /veh FAM167A (11723789_a_at) / RFU FAM26E (11764081_at) / Fold change /veh FAM26E (11764081_at) / RFU ISYNA1 (11749810_s_at) / Fold change /veh ISYNA1 (11749810_s_at) / RFU ACY1 (11761880_at) / Fold change /veh ACY1 (11761880_at) / RFU 11764098_at / Fold change /veh 11764098_at / RFU SAMD14 (11745864_x_at) / Fold change /veh SAMD14 (11745864_x_at) / RFU NPB (11741838_a_at) / Fold change /veh NPB (11741838_a_at) / RFU TMPRSS6 (11731388_a_at) / Fold change /veh TMPRSS6 (11731388_a_at) / RFU KRTAP10-2 (11738614_at) / Fold change /veh KRTAP10-2 (11738614_at) / RFU ARHGAP8 /// PRR5-ARHGAP8 (11727945_x_at) / Fold change /veh ARHGAP8 /// PRR5-ARHGAP8 (11727945_x_at) / RFU KRTAP5-7 /// NADSYN1 (11734609_at) / Fold change /veh KRTAP5-7 /// NADSYN1 (11734609_at) / RFU RASL12 (11751679_a_at) / Fold change /veh RASL12 (11751679_a_at) / RFU CDKN2B (11736163_a_at) / Fold change /veh CDKN2B (11736163_a_at) / RFU PRF1 (11729649_at) / Fold change /veh PRF1 (11729649_at) / RFU, ZNF638 /// ZNF638-IT1 / Fold change vs veh, ZNF638 /// ZNF638-IT1 / RFU, PANK3 / Fold change vs veh, PANK3 / RFU, SH3YL1 / Fold change vs veh, SH3YL1 / RFU, ZEB2 / Fold change vs veh, ZEB2 / RFU, NRIP1 / Fold change vs veh, NRIP1 / RFU, PTTG1IP / Fold change vs veh, PTTG1IP / RFU, CAPN2 / Fold change vs veh, CAPN2 / RFU, MED14 / Fold change vs veh, MED14 / RFU, SNORA58 / Fold change vs veh, SNORA58 / RFU, C1orf63 / Fold change vs veh, C1orf63 / RFU, LRRFIP1 / Fold change vs veh, LRRFIP1 / RFU, NDUFAF7 / Fold change vs veh, NDUFAF7 / RFU, SLC12A2 / Fold change vs veh, SLC12A2 / RFU, IBTK / Fold change vs veh, IBTK / RFU, ESF1 / Fold change vs veh, ESF1 / Fold change vs veh, TMEM50B / RFU, TAOK1 / Fold change vs veh, TAOK1 / RFU, ACBD3 / Fold change vs veh, ACBD3 / RFU, TMA16 / Fold change vs veh, TMA16 / RFU, RWDD3 / Fold change vs veh, RWDD3 / RFU, BCAT1 / Fold change vs veh, BCAT1 / RFU, EDEM3 / Fold change vs veh, EDEM3 / RFU, TMEM33 / Fold change vs veh, TMEM33 / RFU, WDR75 / Fold change vs veh, WDR75 / RFU, AHCTF1 / Fold change vs veh, AHCTF1 / RFU, TFRC / Fold change vs veh, TFRC / RFU, ZDHHC17 / Fold change vs veh, ZDHHC17 / RFU, NOM1 / Fold change vs veh, NOM1 / RFU, ARL8B / Fold change vs veh, ARL8B / RFU, ZBTB11 / Fold change vs veh, ZBTB11 / RFU, TAMM41 / Fold change vs veh, TAMM41 / RFU, KIAA1704 /// LOC100996395 / Fold change vs veh, KIAA1704 /// LOC100996395 / RFU, ING1 / Fold change vs veh, ING1 / RFU, TRMT61B / Fold change vs veh, TRMT61B / RFU, FUBP3 / Fold change vs veh, FUBP3 / RFU, TP53 / Fold change vs veh, TP53 / RFU, TNKS2 / Fold change vs veh, TNKS2 / RFU, ZFP14 / Fold change vs veh, ZFP14 / RFU, ACTR2 / Fold change vs veh, ACTR2 / RFU, PPP3R1 / Fold change vs veh, PPP3R1 / RFU, PIK3R1 / Fold change vs veh, PIK3R1 / RFU, HNRNPA1 / Fold change vs veh, HNRNPA1 / RFU, RNF170 / Fold change vs veh, RNF170 / RFU, ZNF28 / Fold change vs veh, ZNF28 / RFU, RNGTT / Fold change vs veh, RNGTT / RFU, OGT / Fold change vs veh, OGT / RFU, BRD1 / Fold change vs veh, BRD1 / RFU, MARS / Fold change vs veh, MARS / RFU, ZNF655 / Fold change vs veh, ZNF655 / RFU, FAHD1 / Fold change vs veh, FAHD1 / RFU, BDP1 / Fold change vs veh, BDP1 / RFU, LRRCC1 / Fold change vs veh, LRRCC1 / RFU, ARID1A / Fold change vs veh, ARID1A / RFU, ZNF146 / Fold change vs veh, ZNF146 / RFU, ZNF330 / Fold change vs veh, ZNF330 / RFU, GPN3 / Fold change vs veh, GPN3 / RFU, C9orf123 / Fold change vs veh, C9orf123 / RFU, N4BP2L2 / Fold change vs veh, N4BP2L2 / RFU, ARFIP1 / Fold change vs veh, ARFIP1 / RFU, FAM179B / Fold change vs veh, FAM179B / RFU, BCL10 / Fold change vs veh, BCL10 / RFU, UHRF1BP1L / Fold change vs veh, UHRF1BP1L / RFU, BET1 / Fold change vs veh, BET1 / RFU, CNOT2 / Fold change vs veh, CNOT2 / RFU, ZNF268 / Fold change vs veh, ZNF268 / Fold change vs veh, ZNF507 / RFU, DGCR2 / Fold change vs veh, DGCR2 / RFU, WDSUB1 / Fold change vs veh, WDSUB1 / Fold change vs veh, HSP90B1 /// MIR3652 / RFU, ADSS / Fold change vs veh, ADSS / RFU, GK / Fold change vs veh, GK / RFU, ZNF148 / Fold change vs veh, ZNF148 / RFU, TAF9 / Fold change vs veh, TAF9 / RFU, SLC1A5 / Fold change vs veh, SLC1A5 / RFU, SLMO2 / Fold change vs veh, SLMO2 / RFU, ABCC4 / Fold change vs veh, ABCC4 / RFU, LOC101060439 /// RAP1B / Fold change vs veh, LOC101060439 /// RAP1B / RFU, RFX7 / Fold change vs veh, RFX7 / RFU, GTPBP10 / Fold change vs veh, GTPBP10 / RFU, CNEP1R1 / Fold change vs veh, CNEP1R1 / RFU, BIVM-ERCC5 /// ERCC5 / Fold change vs veh, BIVM-ERCC5 /// ERCC5 / RFU, ILF3 / Fold change vs veh, ILF3 / RFU 11762660_at / Fold change /veh 11762660_at / RFU VCAN (11757783_s_at) / Fold change /veh VCAN (11757783_s_at) / RFU DDX43 (11728927_at) / Fold change /veh DDX43 (11728927_at) / RFU KRT8 (11758188_x_at) / Fold change /veh KRT8 (11758188_x_at) / RFU NKD1 (11759106_at) / Fold change /veh NKD1 (11759106_at) / RFU SRD5A1 (11742802_a_at) / Fold change /veh SRD5A1 (11742802_a_at) / RFU TPSAB1 /// TPSB2 (11721975_s_at) / Fold change /veh TPSAB1 /// TPSB2 (11721975_s_at) / RFU GSTM3 (11746129_a_at) / Fold change /veh GSTM3 (11746129_a_at) / RFU IL23R (11737362_x_at) / Fold change /veh IL23R (11737362_x_at) / RFU TMEM51 (11727254_a_at) / Fold change /veh TMEM51 (11727254_a_at) / RFU PIWIL2 (11732686_x_at) / Fold change /veh PIWIL2 (11732686_x_at) / RFU ORM1 (11744905_x_at) / Fold change /veh ORM1 (11744905_x_at) / RFU CCDC152 (11743942_at) / Fold change /veh CCDC152 (11743942_at) / RFU ECM1 (11717891_a_at) / Fold change /veh ECM1 (11717891_a_at) / RFU IL23R (11748794_a_at) / Fold change /veh IL23R (11748794_a_at) / RFU TNFAIP8L3 (11732012_x_at) / Fold change /veh TNFAIP8L3 (11732012_x_at) / RFU MBOAT4 (11741988_at) / Fold change /veh MBOAT4 (11741988_at) / RFU 11764193_at / Fold change /veh 11764193_at / RFU TMEM53 (11763286_at) / Fold change /veh TMEM53 (11763286_at) / RFU MAGEB2 (11727129_at) / Fold change /veh MAGEB2 (11727129_at) / RFU TMEM200A (11744735_a_at) / Fold change /veh TMEM200A (11744735_a_at) / RFU CCDC152 (11751479_a_at) / Fold change /veh CCDC152 (11751479_a_at) / RFU FAM211A (11726209_a_at) / Fold change /veh FAM211A (11726209_a_at) / RFU RGS16 (11746705_a_at) / Fold change /veh RGS16 (11746705_a_at) / RFU VCAN (11755009_s_at) / Fold change /veh VCAN (11755009_s_at) / RFU RHOB (11743442_s_at) / Fold change /veh RHOB (11743442_s_at) / RFU RGS16 (11720943_a_at) / Fold change /veh RGS16 (11720943_a_at) / RFU RGS16 (11720944_at) / Fold change /veh RGS16 (11720944_at) / RFU, VPS4B / Fold change vs veh, VPS4B / RFU, CREB1 / Fold change vs veh, CREB1 / RFU, DNAJC13 / Fold change vs veh, DNAJC13 / RFU, GNAQ / Fold change vs veh, GNAQ / RFU, CDK5R1 / Fold change vs veh, CDK5R1 / RFU, ZRANB3 / Fold change vs veh, ZRANB3 / RFU, CUL4A / Fold change vs veh, CUL4A / RFU, CCNY / Fold change vs veh, CCNY / RFU, UFL1 / Fold change vs veh, UFL1 / RFU, COG3 / Fold change vs veh, COG3 / RFU, DIAPH2 / Fold change vs veh, DIAPH2 / RFU, SKA2 / Fold change vs veh, SKA2 / RFU, AFF3 / Fold change vs veh, AFF3 / RFU, LMF1 / Fold change vs veh, LMF1 / RFU, IPO11 / Fold change vs veh, IPO11 / RFU, DFFB / Fold change vs veh, DFFB / RFU, FOXP1 / Fold change vs veh, FOXP1 / RFU, CARD8 / Fold change vs veh, CARD8 / RFU, STRN3 / Fold change vs veh, STRN3 / RFU, ADK / Fold change vs veh, ADK / RFU, RASSF2 / Fold change vs veh, RASSF2 / RFU, WIPF1 / Fold change vs veh, WIPF1 / RFU, LARP1B / Fold change vs veh, LARP1B / RFU, RASA1 / Fold change vs veh, RASA1 / RFU, RB1 / Fold change vs veh, RB1 / RFU, PPFIA1 / Fold change vs veh, PPFIA1 / RFU, MAT2A / Fold change vs veh, MAT2A / RFU, CCT5 / Fold change vs veh, CCT5 / RFU, WDR92 / Fold change vs veh, WDR92 / RFU, CUX1 / Fold change vs veh, CUX1 / RFU, TTC7A / Fold change vs veh, TTC7A / RFU, TMEM135 / Fold change vs veh, TMEM135 / RFU, DEPTOR / Fold change vs veh, DEPTOR / RFU, CPM / Fold change vs veh, CPM / RFU, DNAJB6 / Fold change vs veh, DNAJB6 / RFU, CACNA2D3 / Fold change vs veh, CACNA2D3 / RFU, DTX4 / Fold change vs veh, DTX4 / RFU, TFCP2 / Fold change vs veh, TFCP2 / RFU, GMCL1 /// GMCL1P1 / Fold change vs veh, GMCL1 /// GMCL1P1 / RFU, AEBP2 / Fold change vs veh, AEBP2 / RFU, SNHG1 /// SNORD22 /// SNORD25 /// SNORD26 /// SNORD27 /// SNORD28 /// SNORD29 /// SNORD31 / Fold change vs veh, SNHG1 /// SNORD22 /// SNORD25 /// SNORD26 /// SNORD27 /// SNORD28 /// SNORD29 /// SNORD31 / Fold change (Aza/veh), C12orf56 (ProbeSet 11735607_a_at) / Fold change (ACY-1035/veh), C12orf56 (ProbeSet 11735607_a_at) / Fold change (Aza/veh), FGFR1OP (ProbeSet 11751329_s_at) / Fold change (ACY-1035/veh), FGFR1OP (ProbeSet 11751329_s_at) / Fold change (Aza/veh), VPS36 (ProbeSet 11739960_a_at) / Fold change (ACY-1035/veh), VPS36 (ProbeSet 11739960_a_at) / RFU SYPL1 (11715823_x_at) / Fold change /veh SYPL1 (11715823_x_at) / RFU IGFBP7 (11715501_s_at) / Fold change /veh IGFBP7 (11715501_s_at) / RFU REEP3 (11722064_at) / Fold change /veh REEP3 (11722064_at) / RFU IGLL1 (11728026_x_at) / Fold change /veh IGLL1 (11728026_x_at): dose or concentration left out as unconfirmed
Details: MV-4-11 cells, 48 hours

Nc1ccc(-c2cccs2)cc1NC(=O)c1ccc2c(c1)cc(C1CC1)n2CCN1CCOCC1 [ACY-1035]
Fold change /veh NKD1 (11759106_at): 1.08
